In patent US7956060B2, “Pyrimidine derivative compound” (Kyowa Hakko Kirin Co., Ltd., priority 2004, dated 2011):

System: human acute myeloid leukemia cell line MV-4-11
Experiment: Cytostatic activity on leukemia cell line (WST-1 assay)
Assay type: cell-based
Details: MV-4-11 cells, test compound 10 μmol/L, 72 hours
Protocol: The cytostatic rate (%) of a test compound on human acute myeloid leukemia cell line MV-4-11 was determined in the following manner.
Each cell was cultured using Roswell Park Memorial Institute's Medium (RPMI) 1640 (Gibco, Catalog No. 11875-093) containing 10% fetal bovine serum (Gibco, Catalog. No. 10437-028) and 1% penicillin/streptomycin (1:1) (Gibco, Catalog No. 15140-122). Each 80 μL of the MV-4-11 cell having a concentration of 7.5×10^4 cells/mL (or K562 cell having a concentration of 2.5×10^4 cells/mL) was inoculated to wells of a TC MICROWELL 96U plate (Nalge Nunc International, Catalog No. 163320) and was cultured in a 5% carbon dioxide gas incubator at 37° C. for 4 hours. As a blank, only RPMI medium (80 μL) was added to a well. […] Then, the absorbances at 450 nm (reference wavelength: 690 nm) were determined with a microplate spectrophotometer SPECTRA max 340PC (Molecular Devices Corporation). The relative growth (%) of a well to which the test compound had been added was determined while setting the absorbance of a well to which not the test compound but DMSO alone had been added (control) at 100% and that of a well containing RPMI medium alone at 0%. The cytostatic rate (%) of the test compound was determined by subtracting the calculated relative growth from 100.

With `CCNc1nc(NCCc2ccncc2)ncc1-c1nnc(CN2CCN(C)CC2)o1` [Compound 4-32] the “cytostatic rate MV-4-11 (%, 10 μmol/L)” value was 99%.
